The values that follow come from PubChem BioAssay (NCI).

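Protocol summary: plate cells (96-well), add compound at 5 concentrations, incubate 48 h, interpolate endpoints linearly. At the TGI there is no net growth.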 Where only a bound is given, the exact number is not on record here.

What all share (experiment): NCI tumour cell line growth inhibition, 48 h
In test [1] the test system is BT-549 breast.
Test [2] deals with MDA-N.
Test [3] has as its system MCF7 breast.
The subject of test [4] is T-47D breast.
For test [5], the system named is PC-3 prostate.
For test [6], the system named is DU-145 prostate.
Test [7] concerns MDA-MB-435.
Test [8] has as its system MDA-MB-231 breast.
Test [9] has as its system HS 578T breast.
Test [10] relates to P388/ADR leukemia.
For test [11], the system named is NCI/ADR-RES ovarian.
For test [12], the system named is P388 leukemia.
The subject of test [13] is SN12K1 renal.

`CCCc1c(-c2ccccc2)[nH]c2ccccc2c1=O`: the TGI in test [1] is over 100 µM; in [2], over 100 µM; in [3] it was over 100 µM; in test [4] it was 99.8 µM; in test [5], over 100 µM; in [6], over 100 µM. The TGI in [7], in test [8] and in test [9] was over 100 µM each time.
With `N#C[C@H](OC1OC(COC2OC(CO)C(O)C(O)C2O)C(O)C(O)C1O)c1ccccc1` (some centres undefined), the TGI is over 158 µM in test [10]; over 250 µM in test [11]; over 250 µM in test [3]; over 250 µM in test [12]; over 250 µM in test [13].
